The results in this text go back to US6528653B2, “Thienopyrrolidinones” (Hoffmann-La Roche, Inc., priority 2000, dated 2003).

pIC50: −log10 of the molar value.

The term pIC50 denotes the IC50 on a negative log10 scale, so that one unit is a factor of ten.

The subject of this experiment is LPS-induced TNF-α production in THP-1 cells. Kind of experiment: Inhibition of LPS-induced TNF-α production in THP-1 cells (TNF-α ELISA). The experiment is classed as cell-based. Particulars: Homo sapiens, 30 min preincubation with compound, LPS 4 hours, TNF-α in supernatant by ELISA, percentage of DMSO control. The procedure: The assay uses a modification of the methods described in Blifield et al., Transplantation, 51:498-503 (1991).
(a) Induction of TNF Biosynthesis
THP-1 cells were suspended in serum free culture medium LGM-3 (Clonetics, Bio Whittaker, UK, Cat. No. CC-3211), at a concentration of 5×10^5 cells/ml and then plated in 96 well-plates (0.2 ml aliquots in each well). Test compounds were dissolved in DMSO and then diluted with the culture medium such that the final DMSO concentration was 1%. Twenty five μl aliquots of test solution or only medium with DMSO (control) were added to each well giving a final DMSO concentration of 0.1%. The cells were incubated for 30 min. at 37° C. LPS (Sigma Chemical Company, UK) was added to the wells at a final concentration of 2 μg/nml, and cells were incubated for an additional 4 hours. At the end of the incubation period, culture supernatants were collected and the amount of TNF-α present was determined using a commercial TNF-α ELISA assay as described below.
(b) ELISA Assay. Quantikine™ human TNF-α (R&D Systems Europe Ltd., UK) (Cat. No. DTA50 in 2000)
The assay was carried out according to the manufacturer's instructions with the following modifications. Assay plates were centrifuged at 200 g and a 200 μl sample added to each well. TNF-α standard was made up and diluted in LGM-3 culture medium. Samples in the ELISA plate were then incubated overnight at 4° C. instead of 2 hours at 37° C. TNF-α production for each condition was calculated and expressed as a percentage of DMSO control to enable IC50 calculation.
Consider `N#Cc1cc2c(s1)NC(=O)/C2=C\c1ccc[nH]1` [Example 20, (Z)-5,6-Dihydro-5-oxo-4-[(1H-pyrrol-2-yl)methylene]-4H-thieno[2,3-b]pyrrole-2-carbonitrile], for which the pIC50 is 5.43.
As to `COc1cc[nH]c1/C=C1\C(=O)Nc2sccc21` [Example 13, (Z)-4,6-Dihydro-4-[(3-methoxy-1H-pyrrol-2-yl)methylene]-thieno[2,3-b]pyrrol-5-one], the negative-log IC50 (pIC50) was 5.80.
Take `O=C1Nc2sccc2/C1=C/c1ccc[nH]1` [Example 1, (Z)-4,6-Dihydro-4-[(1H-pyrrol-2yl)methylene]thieno[2,3-b]pyrrol-5-one]: the pIC50 was 5.29.
The value for `O=C1Nc2sccc2/C1=C/c1c[nH]nc1-c1ccccc1` [Example 9, (Z)-4,6-Dihydro-4-[(3-phenyl-1H-pyrazol-4-yl)methylene]-thieno[2,3-b]pyrrol-5-one] was 5.96.
